According to patent publication US6274715A, “Tricyclic erythromycin derivatives” (priority 1997, dated 2001):
Converted amounts (≈) assume the structure as drawn.

Assays:
Type in all cases: cell-based
[1] = test system: STAPHYLOCOCCUS AUREUS ATCC 6538P; experiment: In vitro antibacterial activity, MIC, BHI agar dilution; settings: S. aureus ATCC 6538P, 35-37° C., 20 to 24 hours, unit assumed
[2] = test system: STAPHYLOCOCCUS AUREUS A-5278; experiment: as above; settings: S. aureus A-5278, unit assumed
[3] = test system: STAPHYLOCOCCUS AUREUS CMX 642A; experiment: as above; settings: S. aureus CMX 642A, unit assumed
[4] = test system: STAPHYLOCOCCUS AUREUS NCTC10649M; experiment: as above; settings: S. aureus NCTC10649M, unit assumed
[5] = test system: STAPHYLOCOCCUS AUREUS CMX 553; experiment: as above; settings: S. aureus CMX 553, unit assumed
[6] = test system: STAPHYLOCOCCUS AUREUS 1775; experiment: as above; settings: S. aureus 1775, unit assumed
[7] = test system: STAPHYLOCOCCUS EPIDERMIDIS 3519; settings: S. epidermidis 3519; BHI agar; unit assumed
EN[…] ATCC 8043 = experiment: In vitro antibacterial activity, MIC, BHI agar dilution; settings: E. faecium ATCC 8043, unit assumed
Method in brief: (§1)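 Agar dilution in BHI: plates inoculated with 1:100 dilutions of organisms (1:10 for Micrococcus and Streptococcus), incubated 20-24 h at 35-37° C, then inspected for the lowest inhibitory concentration against a drug-free growth control.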

M[…] ATCC 4698 = experiment: as above; settings: M. luteus ATCC 4698, unit assumed
Method in brief: as §1

M[…] ATCC 9341 = experiment: as above; settings: M. luteus ATCC 9341, unit assumed
Method in brief: as §1

STR[…] 508 = experiment: as above; settings: S. agalactiae CMX 508, unit assumed
Method in brief: as §1

[8] = test system: STREPTOCOCCUS BOVIS A-5169; experiment: as above; settings: S. bovis A-5169, unit assumed
[9] = test system: STREPTOCOCCUS PYOGENES EES61; experiment: as above; settings: S. pyogenes EES61, unit assumed
[10] = test system: STREPTOCOCCUS PYOGENES 930; experiment: as above; settings: S. pyogenes 930, unit assumed
[11] = test system: STREPTOCOCCUS PYOGENES PIU 2548; experiment: as above; settings: S. pyogenes PIU 2548, unit assumed
ESCHERICHIA COLI JUHL = settings: E. coli JUHL; BHI agar; unit assumed
ESCHERICHIA COLI SS = experiment: In vitro antibacterial activity, MIC, BHI agar dilution; settings: E. coli SS, unit assumed
ESCHERICHIA COLI DC-2 = experiment: as above; settings: E. coli DC-2, unit assumed
ESCHERICHIA COLI H560 = experiment: as above; settings: E. coli H560, unit assumed
ESCHERICHIA COLI KNK 437 = settings: E. coli KNK 437; BHI agar; unit assumed
[12] = test system: ENTEROBACTER AEROGENES ATCC 13048; experiment: In vitro antibacterial activity, MIC, BHI agar dilution; settings: E. aerogenes ATCC 13048, unit assumed
[13] = test system: KLEBSIELLA PNEUMONIAE ATCC 8045; experiment: as above; settings: K. pneumoniae ATCC 8045, unit assumed
[14] = test system: PROVIDENCIA STUARTII CMX 640; settings: P. stuartii CMX 640; BHI agar; unit assumed
[15] = test system: PSEUDOMONAS AERUGINOSA BMH10; experiment: In vitro antibacterial activity, MIC, BHI agar dilution; settings: P. aeruginosa BMH10, unit assumed
[16] = test system: PSEUDOMONAS AERUGINOSA 5007; experiment: as above; settings: P. aeruginosa 5007, unit assumed
[17] = test system: PSEUDOMONAS AERUGINOSA K799/WT; experiment: as above; settings: P. aeruginosa K799/WT, unit assumed
[18] = test system: PSEUDOMONAS AERUGINOSA K799/61; experiment: as above; settings: P. aeruginosa K799/61, unit assumed
PSEUDOMONAS CEPACIA 296I = experiment: as above; settings: P. cepacia 296I, unit assumed
[19] = test system: PSEUDOMONAS AERUGINOSA DPHD-5263; experiment: as above; settings: P. aeruginosa DPHD-5263, unit assumed
[20] = test system: PSEUDOMONAS AERUGINOSA DPHD-2862; experiment: as above; settings: P. aeruginosa DPHD-2862, unit assumed
CANDIDA ALBICANS CCH 442 = experiment: as above; settings: C. albicans CCH 442, unit assumed
[21] = test system: MYCOBACTERIUM SMEGMATIS ATCC 114; experiment: as above; settings: M. smegmatis ATCC 114, unit assumed
H. Influenza Dill AMP R = experiment: In vitro antibacterial activity against H. Influenza Dill AMP R, MIC; settings: separate assay, unit assumed
Method: Representative compounds of the present invention were assayed in vitro for antibacterial activity as follows: Twelve petri dishes containing successive aqueous dilutions of the test compound mixed with 10 mL of sterilized Brain Heart Infusion (BHI) agar (Difco 0418-01-5) were prepared. Each plate was inoculated with 1:100 (or 1:10 for slow-growing strains, such as Micrococcus and Streptococcus) dilutions of up to 32 different microorganisms, using a Steers replicator block. The inoculated plates were incubated at 35-37° C. for 20 to 24 hours. In addition, a control plate, using BHI agar containing no test compound, was prepared and incubated at the beginning and end of each test.
After incubation, each plate was visually inspected. The minimum inhibitory concentration (MIC) was defmed as the lowest concentration of drug yielding no growth, a slight haze, or sparsely isolated colonies on the inoculum spot as compared to the growth control.
In a separate assay representative compounds of the invention were assayed in vitro for antibacterial activity against the H. Influenza Dill AMP R strain, according to the protocol described above.

[22] = test system: STAPHYLOCOCCUS AUREUS A5177; experiment: In vitro antibacterial activity, MIC, BHI agar dilution; settings: S. aureus A5177, unit assumed

Compound | MIC [1] | MIC [2] | MIC [3] | MIC [4] | MIC [5] | MIC [6] | MIC [7] | MIC (EN[…] ATCC 8043) | MIC (M[…] ATCC 4698) | MIC (M[…] ATCC 9341) | MIC (STR[…] 508) | MIC [8] | MIC [9] | MIC [10] | MIC [11] | MIC (ESCHERICHIA COLI JUHL) | MIC (ESCHERICHIA COLI SS) | MIC (ESCHERICHIA COLI DC-2) | MIC (ESCHERICHIA COLI H560) | MIC (ESCHERICHIA COLI KNK 437) | further results
CCC1OC(=O)C(C)C(=O)C(C)C(OC2OC(C)CC(N(C)C)C2O)C(C)(OC)CC(C)C2=NC(c3ccccc3)C(c3ccccc3)N3C(=O)OC1(C)C3C2C (stereo not drawn) [Example 7] | 3.1 µg/mL (≈ 3.92 µM) | 100 µg/mL (≈ 127 µM) | 3.1 µg/mL (≈ 3.92 µM) | 3.1 µg/mL (≈ 3.92 µM) | 3.1 µg/mL (≈ 3.92 µM) | 100 µg/mL (≈ 127 µM) | 1.56 µg/mL (≈ 1.97 µM) | 0.39 µg/mL (≈ 0.494 µM) | 1.56 µg/mL (≈ 1.97 µM) | 0.39 µg/mL (≈ 0.494 µM) | 0.2 µg/mL (≈ 0.253 µM) | 0.2 µg/mL (≈ 0.253 µM) | 0.2 µg/mL (≈ 0.253 µM) | 50 µg/mL (≈ 63.3 µM) | 1.56 µg/mL (≈ 1.97 µM) | > 100 µg/mL | 3.1 µg/mL (≈ 3.92 µM) | > 100 µg/mL | > 100 µg/mL | > 100 µg/mL | MIC [12]: > 100 µg/mL; MIC [13]: > 100 µg/mL; MIC [14]: > 100 µg/mL; MIC [15]: > 100 µg/mL; MIC [16]: > 100 µg/mL; MIC [17]: > 100 µg/mL; MIC [18]: 6.2 µg/mL (≈ 7.85 µM); MIC (PSEUDOMONAS CEPACIA 296I): > 100 µg/mL; MIC [19]: > 100 µg/mL; MIC [20]: > 100 µg/mL; MIC (CANDIDA ALBICANS CCH 442): > 100 µg/mL; MIC [21]: 1.56 µg/mL (≈ 1.97 µM); MIC (H. Influenza Dill AMP R): 64 µg/mL (≈ 81 µM)
CC[C@H]1OC(=O)[C@H](C)C(=O)[C@H](C)[C@@H](O[C@@H]2O[C@H](C)C[C@H](N(C)C)[C@H]2O)[C@](C)(OC)C[C@@H](C)C2=NC[C@H](COCc3cccc(F)c3)N3C(=O)O[C@@]1(C)[C@H]3[C@H]2C [Example 72] | 0.1 µg/mL (≈ 0.129 µM) | > 100 µg/mL | 0.1 µg/mL (≈ 0.129 µM) | 0.1 µg/mL (≈ 0.129 µM) | 0.1 µg/mL (≈ 0.129 µM) | > 100 µg/mL | 0.2 µg/mL (≈ 0.258 µM) | 0.05 µg/mL (≈ 0.0644 µM) | 0.2 µg/mL (≈ 0.258 µM) | ≤ 0.005 µg/mL | 0.01 µg/mL (≈ 0.0129 µM) | ≤ 0.005 µg/mL | 0.01 µg/mL (≈ 0.0129 µM) | 50 µg/mL (≈ 64.4 µM) | 0.39 µg/mL (≈ 0.503 µM) | 50 µg/mL (≈ 64.4 µM) | 0.39 µg/mL (≈ 0.503 µM) | 25 µg/mL (≈ 32.2 µM) | 12.5 µg/mL (≈ 16.1 µM) | 50 µg/mL (≈ 64.4 µM) | MIC [22]: 0.1 µg/mL (≈ 0.129 µM); MIC [12]: 50 µg/mL (≈ 64.4 µM); MIC [14]: > 100 µg/mL; MIC [15]: 50 µg/mL (≈ 64.4 µM); MIC [16]: 100 µg/mL (≈ 129 µM); MIC [17]: 50 µg/mL (≈ 64.4 µM); MIC [18]: 0.39 µg/mL (≈ 0.503 µM); MIC (PSEUDOMONAS CEPACIA 296I): 50 µg/mL (≈ 64.4 µM); MIC [19]: > 100 µg/mL; MIC [20]: > 100 µg/mL; MIC (CANDIDA ALBICANS CCH 442): > 100 µg/mL; MIC [21]: 0.39 µg/mL (≈ 0.503 µM); MIC (H. Influenza Dill AMP R): 2 µg/mL (≈ 2.58 µM)
